Legend:
human TRPA1 [1] = target: T1, human TRPA1 (Homo sapiens, UniProt O75762); assay: FLIPR Ca2+ assay, reduction of hydrogen peroxide activation of TRPA1; type: cell-based; design: expressed in transfected cells
Description: After centrifugation, a pellet of cells was formed in the bottom of the tube separating them from the supernatant solution.
(§1) The pelleted cells were re-suspended in 10 ml assay buffer and 90 μl aliquots (˜50,000 cells) per well delivered to a 96-well assay plate containing 10 μl of test compounds ([…]) or buffer control and incubated at room temperature for 30 minutes.

human TRPV1 [2] = target: T2, human TRPV1 (Homo sapiens, UniProt Q8NER1); assay: FLIPR Ca2+ assay, reduction of capsaicin activation of TRPV1; type: cell-based; design: expressed in transfected cells; conditions: for Ca++ counts: with compound
Description: (§2) Cells were detached with addition of 10 ml of PBS (phosphate buffered saline) by hand shaking gently. Cells were transferred to a 50 ml tube and centrifuged at 850 rpm for 3 minutes to remove PBS.
as §1

human TRPV1 [3] = target: T2, human TRPV1; assay: FLIPR Ca2+ assay, reduction of hydrogen peroxide activation of TRPV1; type: cell-based; design: expressed in transfected cells; conditions: for % Reduction of Hydrogen Peroxide TRPV1 Activation / inhibition at 400 µM: antagonist 400 μM against 500 μM hydrogen peroxide; for Ca++ counts: with compound; for inhibition at 100 µM: antagonist 100 μM against 500 μM hydrogen peroxide
Description: as §2
The pelleted cells were re-suspended in 10 ml assay buffer and 90 μl aliquots (˜50,000 cells) per well delivered to a 96-well assay plate containing 10 μl of test compounds (1 mM in assay buffer, […]) or buffer control and incubated at room temperature for 30 minutes.

human TRPV1 [4] = target: T2, human TRPV1; assay: FLIPR Ca2+ assay, reduction of L-Menthol activation of TRPV1; conditions: antagonist 100 μM against 1 mM L-Menthol
human TRPA1 [5] = target: T1, human TRPA1; assay: FLIPR Ca2+ assay, reduction of L-Menthol activation of TRPA1
Description: In order to determine whether TRPA1 is activated, the intracellular calcium ion (Ca^2+) level from transfected cells with the TRPA1 receptor gene was measured. HEK-2 cells stably transfected with human TRPA1 were grown in 15 ml growth medium [high glucose DMEM (Dulbecco's Modification of Eagle's Medium) supplemented with 10% FBS (fetal bovine serum), 100 μg/ml Penicillin/streptomycin, 100 μg/ml G418] in a 75 Cm^2 flask for 3 days at 37° C. in a mammalian cell culture incubator set at 5% CO2. Cells were detached with addition of 10 ml of PBS (phosphate buffered saline) by hand shaking gently and transferred to a 50 ml tube and centrifuged at 850 rpm for 3 minutes to remove PBS. After centrifugation, a pellet of cells was formed in the bottom of the tube separating them from the supernatant solution. […] Fluo-4 is a fluorescent dye used for quantifying cellular Ca^2+ concentrations in the 100 nM to 1 μM range.
The pelleted cells were re-suspended in 10 ml assay buffer and 90 μl aliquots (˜50,000 cells) per well delivered to a 96-well assay plate containing 10 μl of test compounds (1 mM in assay buffer, final concentration 100 μM) or buffer control and incubated at room temperature for 30 minutes. After 30 minutes, the plate was placed into a fluorometric imaging plate reader (FLIPR384 from Molecular Devices) and basal fluorescence recorded (excitation wave length 488 nm and emission wave length 510 nm). Then 20 μl of the molecule being tested as a TRPA1 antagonist was added and fluorescence recorded. For determining the direct effect of test compounds on TRPA1, fluorescence was measured immediately after addition of each compound.
To determine if a compound was an antagonist or a desensitizer the direct effect of a test compound was determined. For determining the direct effect of test compounds on TRPA1 receptor activation, 100 μl aliquots (˜50,000 cells) of cells prepared as described above were delivered to a 96-well assay plate and basal fluorescence recorded as noted above. Then 20 μl of the compound being tested as a TRPA1 activator was added and fluorescence recorded. If any increase in fluorescence over background was noted, then the compound was considered an agonist.

human TRPA1 [6] = target: T1, human TRPA1; assay: FLIPR Ca2+ assay, block of AITC activation of TRPA1; type: cell-based; design: expressed in transfected cells
Description: Intracellular Ca^++ levels were measured using cell based assays as described for EXAMPLES 1, 2, and 3.

[7] = 100 μM antagonist vs 500 μM hydrogen peroxide
[8] = compound 100 μM against 200 μM hydrogen peroxide, Sets 1-4

T2 sequence (Q8NER1 whole entry): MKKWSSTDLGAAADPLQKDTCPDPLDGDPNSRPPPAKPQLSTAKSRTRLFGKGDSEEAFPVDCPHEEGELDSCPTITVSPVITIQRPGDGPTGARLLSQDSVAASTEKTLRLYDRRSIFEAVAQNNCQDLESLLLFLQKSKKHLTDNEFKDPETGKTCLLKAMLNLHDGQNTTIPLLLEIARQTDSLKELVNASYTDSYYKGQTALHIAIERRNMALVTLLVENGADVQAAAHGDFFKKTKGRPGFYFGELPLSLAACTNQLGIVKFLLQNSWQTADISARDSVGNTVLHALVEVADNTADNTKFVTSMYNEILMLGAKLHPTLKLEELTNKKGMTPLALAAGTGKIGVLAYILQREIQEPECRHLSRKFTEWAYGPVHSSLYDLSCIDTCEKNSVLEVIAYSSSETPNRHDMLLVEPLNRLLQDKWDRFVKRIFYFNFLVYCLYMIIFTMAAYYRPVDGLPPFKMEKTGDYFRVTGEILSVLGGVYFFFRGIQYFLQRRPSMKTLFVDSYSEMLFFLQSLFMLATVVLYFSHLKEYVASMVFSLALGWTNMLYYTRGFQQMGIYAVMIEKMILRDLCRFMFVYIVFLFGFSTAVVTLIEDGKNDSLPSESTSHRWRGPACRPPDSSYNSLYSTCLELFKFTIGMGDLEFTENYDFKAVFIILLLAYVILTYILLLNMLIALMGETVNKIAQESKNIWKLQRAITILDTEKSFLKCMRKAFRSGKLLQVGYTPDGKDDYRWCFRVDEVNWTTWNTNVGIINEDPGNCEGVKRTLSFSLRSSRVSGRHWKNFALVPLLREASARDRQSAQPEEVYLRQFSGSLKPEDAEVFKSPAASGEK
T1 sequence (O75762 whole entry): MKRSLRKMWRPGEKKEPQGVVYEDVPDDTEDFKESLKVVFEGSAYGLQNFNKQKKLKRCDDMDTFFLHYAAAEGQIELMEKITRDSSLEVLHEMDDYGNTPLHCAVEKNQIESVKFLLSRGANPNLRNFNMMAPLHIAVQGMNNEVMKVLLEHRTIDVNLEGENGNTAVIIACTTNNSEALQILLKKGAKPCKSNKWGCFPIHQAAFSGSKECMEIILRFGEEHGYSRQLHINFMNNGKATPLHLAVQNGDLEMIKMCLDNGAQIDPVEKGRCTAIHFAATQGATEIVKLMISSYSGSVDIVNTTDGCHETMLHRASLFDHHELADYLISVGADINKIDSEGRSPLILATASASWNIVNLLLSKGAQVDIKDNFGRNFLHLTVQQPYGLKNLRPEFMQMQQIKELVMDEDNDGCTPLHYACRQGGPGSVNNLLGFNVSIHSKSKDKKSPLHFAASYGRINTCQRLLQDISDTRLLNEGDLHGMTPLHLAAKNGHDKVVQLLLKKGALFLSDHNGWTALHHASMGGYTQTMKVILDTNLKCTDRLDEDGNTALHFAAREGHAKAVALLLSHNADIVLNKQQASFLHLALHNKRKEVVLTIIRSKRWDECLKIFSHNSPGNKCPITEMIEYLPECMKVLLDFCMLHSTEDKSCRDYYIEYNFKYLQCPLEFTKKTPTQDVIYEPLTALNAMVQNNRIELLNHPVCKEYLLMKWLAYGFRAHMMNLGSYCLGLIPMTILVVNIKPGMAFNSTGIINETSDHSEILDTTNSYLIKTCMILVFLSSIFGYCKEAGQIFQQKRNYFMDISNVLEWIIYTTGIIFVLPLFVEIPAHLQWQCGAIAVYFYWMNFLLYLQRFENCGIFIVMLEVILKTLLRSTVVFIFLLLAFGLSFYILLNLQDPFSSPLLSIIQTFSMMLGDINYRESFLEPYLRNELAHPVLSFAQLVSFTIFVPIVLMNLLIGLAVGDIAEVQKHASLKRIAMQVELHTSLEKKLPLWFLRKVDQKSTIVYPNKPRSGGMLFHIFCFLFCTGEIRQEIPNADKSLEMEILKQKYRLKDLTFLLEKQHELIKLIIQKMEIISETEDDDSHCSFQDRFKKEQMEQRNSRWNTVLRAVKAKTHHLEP

Compound	Ca++ counts (human TRPV1 [2]; Dose 4000, 350 nM Capsaicin)	Ca++ counts (human TRPV1 [3]; Dose 4000, 500 uM H2O2)	Ca++ counts (human TRPV1 [2]; Dose 1000, 350 nM Capsaicin)	Ca++ counts (human TRPV1 [3]; Dose 1000, 500 uM H2O2)	inhibition at 400 µM (human TRPV1 [3]) [%]	further results
Cn1cccc1C=O [1-Methyl-2-pyrole carboxaldehyde]	11516	380	–	–	–	reduction of hydrogen peroxide activation of TRPA1, in words (human TRPA1 [1]): reduced hydrogen peroxide activation of TRPA1; Block of hydrogen peroxide activation of TRPA1 (human TRPA1 [1]; 400 μM antagonist vs 500 μM hydrogen peroxide): BLOCK ONLY H2O2/TRPA1; % Reduction of Hydrogen Peroxide TRPA1 Activation (human TRPA1 [1]; antagonist 400 μM against 200 μM hydrogen peroxide): 42%; % inhibition of TRPV1 activation by 350 nM Capsaicin (human TRPV1 [2]; Dose 4000): 3%; reduction of hydrogen peroxide activation of TRPV1, in words (human TRPV1 [3]): hydrogen peroxide reduction of TRPV1; % inhibition of TRPV1 activation by 500 uM H2O2 (human TRPV1 [3]; Dose 4000): 79%; % Reduction of Hydrogen Peroxide TRPV1 Activation (human TRPV1 [3]): 79%
CCOc1nccnc1CC [2-Ethoxy-3-ethylpyrazine]	–	–	14878	474	–	inhibition at 100 µM (human TRPV1 [3]): 58%
CCC(C)COC(=O)CC(C)C (stereo not drawn) [2-Methylbutyl isovalerate]	11278	380	–	–	79	–
CCCCCC(CC)OC(C)=O (stereo not drawn) [3-Octyl Acetate]	12109	181	–	–	90	–
CCCCOC(=O)C(C)C [Butyl Isobutyrate]	11278	774	–	–	58	–
CC(CC=O)CCCC(C)(C)O (stereo not drawn) [Hydroxycitronellal]	–	–	14728	627	–	Block of hydrogen peroxide activation of TRPA1 (human TRPA1 [1]; [7]): BLOCK ONLY H2O2/TRPA1; Average Ca++ Counts (human TRPA1 [1]; [8]): 6313.0 Counts; inhibition at 100 µM (human TRPA1 [1]; compound 100 μM against 200 μM hydrogen peroxide, Sets 1-4, read-out: % Reduction of Hydrogen Peroxide TRPA1 Activation): 40.4%; inhibition at 100 µM (human TRPV1 [3]): 62%
CC/C=C/CC1CCCC1=O (stereo not drawn) [Jasminone B]	11635	903	–	–	–	% inhibition of TRPV1 activation by 350 nM Capsaicin (human TRPV1 [2]; Dose 4000): 2%; % inhibition of TRPV1 activation by 500 uM H2O2 (human TRPV1 [3]; Dose 4000): 51%; % Reduction of Hydrogen Peroxide TRPV1 Activation (human TRPV1 [3]): 51%
CC1=CC(=O)C(C(C)C)CC1 [L-Piperiton]	–	–	13225	361	–	% inhibition of TRPV1 activation by 350 nM Capsaicin (human TRPV1 [2]; Dose 1000): 12%; % inhibition of TRPV1 activation by 500 uM H2O2 (human TRPV1 [3]; Dose 1000): 58%
COC(=O)c1ccccc1N(C)C [Methyl N,N-Dimethylanthranilate]	–	–	15329	451	–	inhibition at 100 µM (human TRPV1 [3]): 60%
CCCCCC=CCC1CCCC1=O (stereo not drawn) [Octenyl Cyclopentanone]	9378	922	–	–	–	% inhibition of TRPV1 activation by 350 nM Capsaicin (human TRPV1 [2]; Dose 4000): 1%; % inhibition of TRPV1 activation by 500 uM H2O2 (human TRPV1 [3]; Dose 4000): 50%; % Reduction of Hydrogen Peroxide TRPV1 Activation (human TRPV1 [3]): 50%
CC(C)=CC1CC(C)CCO1 (stereo not drawn) [Tetrahydro-4-methyl-2-(2-methyl-1-propenyl)-2H pyran]	11041	866	–	–	53	–
CCCN(CCC)CCC [Tripropylamine]	11278	715	–	–	63	–
manganese chloride	–	–	–	–	–	Block of hydrogen peroxide activation of TRPA1 (human TRPA1 [1]; [7]): Block menthol, H2O2, and AITC on TRPA1; % Reduction of Hydrogen Peroxide TRPA1 Activation (human TRPA1 [1]; [8]): 59.2%; Average Ca++ Counts (human TRPA1 [1]; [8]): 2872.5 Counts; % Reduction of L-Menthol TRPV1 Activation (human TRPV1 [4]): 38.7%; Average Ca2+ Counts (human TRPV1 [4]): 3922.0 Counts; Block of L-Menthol activation of TRPA1 (human TRPA1 [5]): Block menthol, H2O2, and AITC on TRPA1; Block of AITC activation of TRPA1 (human TRPA1 [6]): Block menthol, H2O2, and AITC on TRPA1
